# Key:
# Experiment in all cases: relative viability (nuclei count vs DMSO), 5 days (fraction); higher = more cells survive
# Axitinib + Vorinostat = compound: CNC(=O)c1ccccc1Sc1ccc2c(/C=C/c3ccccn3)n[nH]c2c1 [Axitinib] + O=C(CCCCCCC(=O)Nc1ccccc1)NO [Vorinostat] (partner 1 µM)
# Outline: (§1)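 Lung cancer cell lines were pin-tool dosed in 1536-well plates on the day after seeding, with either a lone drug or a fixed anchor-drug dose plus five library-drug doses (not always all listed) in √10 steps. Nuclei were counted on 4× images after 5 days. Relative viability is the ratio of treated-well to vehicle-well nuclei counts, with each value a median of duplicate plates.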
# Bemcentinib + Dasatinib = compound: Nc1nc(Nc2ccc3c(c2)CC[C@@H](N2CCCC2)CC3)nn1-c1cc2c(nn1)-c1ccccc1CCC2 [Bemcentinib] + Cc1nc(Nc2ncc(C(=O)Nc3c(C)cccc3Cl)s2)cc(N2CCN(CCO)CC2)n1 [Dasatinib] (partner 0.075 µM)
# Outline: as §1
# [1] = compound: CC1=CC=C(C=C1)C(=O)CN2C3=C(CCCC3)SC2=N [Pifithrin_alpha] + CS(=O)(=O)CCNCc1ccc(-c2ccc3ncnc(Nc4ccc(OCc5cccc(F)c5)c(Cl)c4)c3c2)o1 [Lapatinib] (partner 2 µM)
# Outline: as §1
# [2] = compound: CC1=CC=C(C=C1)C(=O)CN2C3=C(CCCC3)SC2=N [Pifithrin_alpha] + CC1(C)CCC(c2ccc(Cl)cc2)=C(CN2CCN(c3ccc(C(=O)NS(=O)(=O)c4ccc(N[C@H](CCN5CCOCC5)CSc5ccccc5)c(S(=O)(=O)C(F)(F)F)c4)cc3)CC2)C1 [Navitoclax] (partner 0.5 µM)
# Outline: as §1
Cell Line,relative viability (Axitinib + Vorinostat; first compound 0.005 µM),relative viability (Axitinib + Vorinostat; first compound 0.01581 µM),relative viability (Axitinib + Vorinostat; first compound 0.05 µM),relative viability (Axitinib + Vorinostat; first compound 0.1581 µM),relative viability (Axitinib + Vorinostat; first compound 0.5 µM),relative viability (Bemcentinib + Dasatinib; first compound 0.04 µM),relative viability (Bemcentinib + Dasatinib; first compound 0.1265 µM),relative viability (Bemcentinib + Dasatinib; first compound 0.4 µM),relative viability (Bemcentinib + Dasatinib; first compound 1.265 µM),relative viability (Bemcentinib + Dasatinib; first compound 4 µM),relative viability ([1]; first compound 1 µM),relative viability ([1]; first compound 3.162 µM),relative viability ([1]; first compound 10 µM),relative viability ([1]; first compound 31.62 µM),relative viability ([1]; first compound 100 µM),relative viability ([2]; first compound 1 µM),relative viability ([2]; first compound 3.162 µM),relative viability ([2]; first compound 10 µM),relative viability ([2]; first compound 31.62 µM),relative viability ([2]; first compound 100 µM)
LXF-289,0.777,0.74,0.791,0.716,0.732,0.206,0.178,0.212,0.241,0.187,0.912,0.979,0.85,0.749,0.837,0.984,1.01,0.96,0.793,0.901
NCI-H23,0.644,0.51,0.674,0.583,0.667,0.476,0.884,0.985,0.632,0.828,1.26,1.13,1,0.682,0.839,0.797,0.857,0.889,0.736,0.729
NCI-H322M,0.908,0.836,0.827,0.767,0.962,0.229,0.279,0.251,0.267,0.258,0.578,0.621,0.557,0.635,0.613,1.17,1.35,1.27,1.22,1.33
NCI-H460,0.758,0.772,0.734,0.732,0.914,0.452,0.534,0.562,0.535,0.551,1.2,1.21,1.1,,0.533,1.41,0.989,0.989,,0.933
NCI-H520,0.797,0.678,0.686,0.691,0.801,0.197,0.194,0.257,0.206,0.23,1.01,0.978,0.88,0.694,0.878,1.11,1.32,1.16,0.94,1.12
NCI-H596,0.764,0.627,0.576,0.558,0.575,0.454,0.604,0.575,0.593,0.627,0.9,0.934,1.02,0.915,1.07,0.844,0.891,0.9,0.88,1.13
NCI-H647,0.63,0.71,0.572,0.548,0.605,0.169,0.213,0.211,0.186,0.136,0.978,0.997,0.975,,0.966,0.814,1.07,0.86,,1.03
NCI-H727,1.16,1.33,1.16,1.35,1.21,0.394,0.4,0.319,0.337,0.441,0.884,0.903,0.695,0.555,0.565,0.356,0.412,0.307,0.244,0.271
NCI-H838,0.814,0.725,0.792,0.707,0.752,0.221,0.305,0.309,0.254,0.294,1.08,0.908,0.822,0.562,0.615,1.14,1.06,1,0.833,0.882
NCI-H1355,0.661,0.575,0.69,0.604,0.542,0.723,0.778,0.829,0.778,0.841,0.765,0.756,0.699,0.616,0.702,0.812,0.675,0.692,0.556,0.563
NCI-H1395,0.706,0.529,0.709,0.639,0.649,0.393,0.392,0.439,0.364,0.396,,0.797,0.967,0.663,0.814,,1.15,1.34,0.604,1.31
NCI-H1437,0.942,0.85,0.86,0.876,0.78,0.365,0.421,0.416,0.438,0.38,0.946,0.809,0.898,0.507,0.377,1.25,1.16,1.13,0.784,0.775
NCI-H1650,0.699,0.616,0.694,0.5,0.754,0.344,0.382,0.347,0.346,0.321,0.395,0.665,0.739,0.521,0.839,1.31,1.15,0.973,0.675,0.865
NCI-H1651,0.563,0.542,0.537,0.548,0.59,0.393,0.381,0.484,0.41,0.498,0.633,0.763,0.865,0.537,0.741,1.05,1.06,0.924,0.604,0.865
NCI-H1666,1.07,1.14,1.02,1.09,1.11,0.755,0.781,0.806,0.773,0.781,0.503,0.405,0.286,0.337,0.365,0.84,0.61,0.432,0.635,0.354
NCI-H1734,0.787,0.891,0.865,0.903,0.964,0.46,0.48,0.512,0.41,0.448,1.05,1.08,0.953,0.749,1.07,0.892,0.95,0.796,0.745,0.734

# Source: the supplement of paper PMC10307832
